One may read the IC50 as the concentration needed to halve the response being measured.

For 20 molecules, IC50, Activity and viability results are on record in ChEMBL document CHEMBL6114957, “Exploring anticancer properties of new triazole-linked benzenesulfonamide derivatives against colorectal carcinoma: Synthesis, cytotoxicity, and in silico insights” (Bioorg Med Chem, 2025).

In data set [1] the test system is DLD-1. Put plainly: Cytotoxicity against human DLD-1 cells assessed as cell viability incubated for 48 hrs by MTT assay. The class given is functional, cell-based. Particulars: DLD-1, 48 h. On the technique in general: Tetrazolium dyes change colour on reduction, which living cells bring about.
Data set [2] in a line: Cytotoxicity against human CCD-986Sk cells assessed as cell viability incubated for 48 hrs by MTT assay. The data set is classed as toxicity, cell-based.
The next data set concerns HT-29. Put plainly: Cytotoxicity against human HT-29 cells assessed as cell viability incubated for 48 hrs by MTT assay. The data set is classed as functional, cell-based. As to conditions: HT-29, 48 h.
A further data set deals with COLO 205. Put plainly: Cytotoxicity against human COLO 205 cells assessed as cell viability incubated for 48 hrs by MTT assay. The data set is classed as functional, cell-based. As to conditions: COLO 205, 48 h.
Data set [3] deals with DLD-1. Put plainly: Induction of apoptosis in human DLD-1 cells assessed as necrotic cells at 10 uM incubated for 48 hrs by Annexin V staining based flow cytometry (reference value: 5.12 %). The class given is functional. For orientation: Flow cytometry measures light scatter and fluorescence of single cells or particles in a stream.
The test system of data set [4] is DLD-1. Put plainly: Induction of apoptosis in human DLD-1 cells assessed as early apoptotic cells at 10 uM incubated for 48 hrs by Annexin V staining based flow cytometry (reference value: 6.73 %). The data set is classed as functional.
Data set [5] deals with DLD-1. Kind of data set: Induction of apoptosis in human DLD-1 cells assessed as late apoptotic cells at 10 uM incubated for 48 hrs by Annexin V staining based flow cytometry (reference value: 6.19 %). The class given is functional.
Data set [6] concerns DLD-1. Kind of data set: Induction of apoptosis in human DLD-1 cells assessed as viable cells at 10 uM incubated for 48 hrs by Annexin V staining based flow cytometry (reference value: 81.96 %). The data set is classed as functional. As to conditions: read-out: Activity.
Data set [7] deals with DLD-1. Put plainly: Induction of apoptosis in human DLD-1 cells assessed as viable cells at 5 uM incubated for 48 hrs by Annexin V staining based flow cytometry (reference value: 81.96 %). The class given is functional. Particulars: read-out: Activity.
The test system of data set [8] is DLD-1. Put plainly: Induction of apoptosis in human DLD-1 cells assessed as late apoptotic cells at 5 uM incubated for 48 hrs by Annexin V staining based flow cytometry (reference value: 6.19 %). The class given is functional.
The test system of data set [9] is DLD-1. Put plainly: Induction of apoptosis in human DLD-1 cells assessed as early apoptotic cells at 5 uM incubated for 48 hrs by Annexin V staining based flow cytometry (reference value: 6.73 %). The class given is functional.
Data set [10] has as its system DLD-1. Put plainly: Induction of apoptosis in human DLD-1 cells assessed as necrotic cells at 5 uM incubated for 48 hrs by Annexin V staining based flow cytometry (reference value: 5.12 %). The data set is classed as functional.

For `NS(=O)(=O)c1ccc(-n2cc(COc3ccc(C=O)cc3)nn2)cc1`, the IC50 was 164 µM in the data set with DLD-1 [1], more than 200 µM with HT-29 and 75.1 µM with COLO 205. The IC50 at 48 h in data set [2] is more than 200 µM.

As for `NS(=O)(=O)c1ccc(-n2cc(COc3ccc([N+](=O)[O-])cc3)nn2)cc1`, the IC50 in the data set with DLD-1 [1] is 76.8 µM; in the data set on HT-29 it was 78 µM; in the data set with COLO 205 it was 124 µM. For the same molecule, the IC50 at 48 h in [2] amounted to 69.8 µM.

As to `Cc1ccc(OCc2cn(-c3ccc(S(N)(=O)=O)cc3)nn2)c([N+](=O)[O-])c1`, the half-inhibitory concentration (IC50) with DLD-1 [1] was determined as 13 µM; with HT-29, 62.8 µM; with COLO 205, 165 µM. Moreover, in data set [2], the IC50 at 48 h turned out to be 25.9 µM.

Consider `NS(=O)(=O)c1ccc(-n2cc(COc3ccc([N+](=O)[O-])cc3C=O)nn2)cc1`, for which the IC50 in the data set on DLD-1 [1] worked out at 11.8 µM; with HT-29, 9.35 µM; with COLO 205, 132 µM. Moreover, the Activity with DLD-1 [3] amounted to 2.85%; in the data set with DLD-1 [4], 33.56%; with DLD-1 [5] it was 8.59%. Also, the IC50 at 48 h in data set [2] was more than 200 µM. The viability at 10 µM in the data set with DLD-1 [6] came to 55%.

For the molecule `NS(=O)(=O)c1ccc(-n2cc(COc3ccccc3C=O)nn2)cc1`, the values for the IC50 with DLD-1 [1], in the data set with HT-29 and in the data set with COLO 205 were 52.1 µM, 65 µM and 147 µM, respectively. The IC50 at 48 h in data set [2] was 96.3 µM.

Consider `CC(=O)c1cccc(OCc2cn(-c3ccc(S(N)(=O)=O)cc3)nn2)c1`, for which the concentration for half-maximal inhibition (IC50) stood at 79.2 µM in the data set with DLD-1 [1], 128 µM in the data set on HT-29 and 81.3 µM in the data set with COLO 205. In addition, the IC50 at 48 h in [2] is more than 200 µM.

For the molecule `CC(=O)c1ccccc1OCc1cn(-c2ccc(S(N)(=O)=O)cc2)nn1`, the figures for the IC50 with DLD-1 [1], in the data set with HT-29 and with COLO 205 were 51 µM, 80 µM and 160 µM, respectively. The IC50 at 48 h in [2] is 139 µM.

With `O=c1[nH]cc(F)c(=O)[nH]1` [FLUOROURACIL], the IC50 is 5.75 µM with DLD-1 [1], 4.51 µM in the data set on HT-29 and 90.1 µM in the data set with COLO 205. Further, the viability at 5 µM with DLD-1 [7] was 60.9%. In addition, the Activity was 9.91% in the data set on DLD-1 [8], 25.5% with DLD-1 [9] and 3.73% with DLD-1 [10]. Besides, the half-maximal inhibitory concentration (IC50) at 48 h in [2] was found to be 7.98 µM.

Regarding `CC(=O)c1ccc(OCc2cn(-c3ccc(S(N)(=O)=O)cc3)nn2)cc1`, the IC50 with DLD-1 [1] was 123 µM; in the data set on HT-29, more than 200 µM; in the data set on COLO 205, more than 200 µM. Also, the IC50 at 48 h in [2] was more than 200 µM.

As for `NS(=O)(=O)c1ccc(-n2cc(COc3ccc(C(=O)c4ccccc4)cc3)nn2)cc1`, the results for the IC50 in the data set with DLD-1 [1], with HT-29 and in the data set with COLO 205 were 19 µM, 20.6 µM and more than 200 µM, respectively. Besides, the IC50 at 48 h in [2] came to 15.2 µM.

`NS(=O)(=O)c1ccc(-n2cc(COc3ccc4ccccc4c3C=O)nn2)cc1`: the IC50 in the data set on DLD-1 [1] was 153 µM; in the data set with HT-29 it was more than 200 µM; with COLO 205 it was more than 200 µM. In addition, in [2], the IC50 at 48 h is more than 200 µM.

Turning to `COc1cccc(C=O)c1OCc1cn(-c2ccc(S(N)(=O)=O)cc2)nn1`, the IC50 with DLD-1 [1] was 180 µM; in the data set with HT-29 it was more than 200 µM; with COLO 205, more than 200 µM. In [2], the IC50 at 48 h is more than 200 µM.

As to `Cc1ccc(C(C)C)c(OCc2cn(-c3ccc(S(N)(=O)=O)cc3)nn2)c1`, the figures for the IC50 with DLD-1 [1], with HT-29 and in the data set on COLO 205 were 35 µM, 33.2 µM and more than 200 µM, respectively. The IC50 at 48 h in [2] is 13.1 µM.

As to `NS(=O)(=O)c1ccc(-n2cc(COc3ccc(Br)cc3C=O)nn2)cc1`, the IC50 with DLD-1 [1] is 51.1 µM; in the data set on HT-29, more than 200 µM; in the data set with COLO 205, more than 200 µM. The IC50 at 48 h in data set [2] is more than 200 µM.

Turning to `C=CCc1ccc(OCc2cn(-c3ccc(S(N)(=O)=O)cc3)nn2)c(OC)c1`, the IC50 in the data set with DLD-1 [1] was 49.8 µM; with HT-29, 75.3 µM; with COLO 205 it was more than 200 µM. For the same molecule, the IC50 at 48 h in data set [2] was 134 µM.

Consider `NS(=O)(=O)c1ccc(-n2cc(COc3cccc(C=O)c3)nn2)cc1`, for which the IC50 was 122 µM in the data set with DLD-1 [1], more than 200 µM with HT-29 and 40.9 µM in the data set on COLO 205. The 50% inhibitory concentration (IC50) at 48 h in data set [2] was more than 200 µM.

As for `CC(=O)c1cc(Cl)ccc1OCc1cn(-c2ccc(S(N)(=O)=O)cc2)nn1`, the values for the IC50 with DLD-1 [1], in the data set with HT-29 and in the data set with COLO 205 were 15.9 µM, 187 µM and more than 200 µM, respectively. In addition, the concentration for half-maximal inhibition (IC50) at 48 h in data set [2] amounted to 51.3 µM.

As to `Cc1ccc(C(C)C)cc1OCc1cn(-c2ccc(S(N)(=O)=O)cc2)nn1`, the IC50 with DLD-1 [1] was 16.6 µM; with HT-29 it was 35.9 µM; in the data set on COLO 205 it was more than 200 µM. Moreover, the IC50 at 48 h in data set [2] is 12.8 µM.

For the molecule `CCN(CC)c1ccc(C=O)c(OCc2cn(-c3ccc(S(N)(=O)=O)cc3)nn2)c1`, the IC50 was 53.4 µM in the data set with DLD-1 [1], 41.9 µM in the data set on HT-29 and 148 µM in the data set on COLO 205. The concentration for half-maximal inhibition (IC50) at 48 h in data set [2] was found to be 185 µM.

On to `NS(=O)(=O)c1ccc(-n2cc(COc3ccc(Cl)cc3Cl)nn2)cc1`, for which the IC50 in the data set on DLD-1 [1] was found to be 24.9 µM; with HT-29, 63.6 µM; in the data set on COLO 205, 172 µM. Besides, the IC50 at 48 h in data set [2] amounted to 78.2 µM.
